Measured values taken from patent publication US8293745B2 (Bioniche Life Sciences Inc., priority 2004, dated 2012).

Tests used:
HIV-1 = settings: cited from earlier work
EMC virus = settings: L929 cells; cited from earlier work
HCV = settings: 400 mg/day
Description: A person diagnosed with chronic active hepatitis C. […] The patient was positive for antibodies for HCV. Histological confirmation of chronic hepatitis was corroborated by positive hepatic biopsies at month zero.
For 18 months, the patient was treated with interferon alpha-2 at 180 μg/week. For the next 4 months, the patient was given intravenous administration of 6 million units (MU) interferon-beta daily for 6 weeks followed by three times weekly for 20 weeks. Subsequently, the patient was treated with interferon alpha-2 at 180 μg/week plus ribavirin 1000-1200 mg/day for 5 months. Subsequently, the patient was treated with pegylated interferon alpha-2b (PEG-interferon) at 1.5 μg/kg once weekly for 25 months.
Subsequently, the patient was diagnosed with a GIST of the posterior wall of the stomach. […] The patient then underwent surgical resection of the GIST.

[1] = system: GIST of the posterior wall of the stomach; experiment: Imatinib mesylate treatment of GIST in the same patient
chronic phase CML = settings: high-dose, newly diagnosed chronic phase CML; cited from earlier work
c-Kit tyrosine kinase = settings: cited from earlier work
[2] = human patient with HCV and GIST, within 2 weeks after the beginning of treatment, FIG. 1

OCCC#Cc1nc(-c2ccc(F)cc2)c(-c2ccncc2)n1CCCc1ccccc1 [RWJ67657]
HIV-1 replication (HIV-1): effective in inhibiting HIV-1 replication

O=c1c(-c2ccc(O)cc2)coc2cc(O)cc(O)c12 [genistein]
EMC virus replication (EMC virus): suppressed viral replication

CO[C@H]1[C@@H](OC)C[C@H](C)[C@@H](OC)C2=CC(=O)C=C(NC(=O)/C(C)=C/C=C\[C@H](OC)[C@@H](OC(N)=O)/C(C)=C/[C@@H]1C)C2=O [herbimycin A]
EMC virus replication (EMC virus): suppressed viral replication

CS(=O)(=O)O.Cc1ccc(NC(=O)c2ccc(CN3CCN(C)CC3)cc2)cc1Nc1nccc(-c2cccnc2)n1 [imatinib mesylate, 4-[(4-methyl-1-piperazinyl)methyl]-N-[4-methyl-3-[[4-(3-pyridinyl)-2-pyrimidinyl]amino]phenyl]-benzamide methanesulfonate]
levels of alanine aminotransferase (HCV; [2]): dramatically decreased | levels of aspartate aminotransferase (HCV; [2]): dramatically decreased | quality of life (HCV; patient-reported): clear improvement | remission of GIST ([1]; 400 mg/day, pre- and postoperative): achieved cytogenetic and molecular remission | complication during treatment ([1]; after 5 months preoperative 400 mg/day, treatment halted): acute hemorrhage of the tumor | attenuation of the gastric tumor (histologic examination) ([1]; after imatinib mesylate treatment): significant decreased attenuation | metastasis status ([1]; one year after the initiation of treatment): without metastasis

Cc1ccc(NC(=O)c2ccc(CN3CCN(C)CC3)cc2)cc1Nc1nccc(-c2cccnc2)n1 [imatinib, 4-[(4-methyl-1-piperazinyl)methyl]-N-[4-methyl-3-[[4-(3-pyridinyl)-2-pyrimidinyl]amino]phenyl]-benzamide]
rates of complete cytogenetic response and of molecular response (chronic phase CML): higher rates | inhibition of c-Kit tyrosine kinase activity, wild-type vs constitutively active enzyme (c-Kit tyrosine kinase): equally effective against both wild-type and constitutively active enzyme
